Usually logP stands for the decadic logarithm of the partition coefficient of the neutral form, usually between octanol and water. The low end stands for a more hydrophilic compound, the high end for a more lipophilic compound.

SMILES strings stand for the structures.

The nature of the series: method code SF-HPLC, from DOI: 10.1002/jps.2600840914, PMID: 8537890.
Take `Cc1ssc(=S)c1-c1ccccc1`: the logP was determined as 3.17.

In turn, `CCCc1c(C)ssc1=S` registered a lipophilicity (logP) of 3.39.

Consider `Cc1ssc(=S)c1Cc1ccccc1`, for which the logP was determined as 3.78. Next, `CCc1cc(=S)ss1`: 2.31.

As for `S=c1sscc1-c1ccccc1`, the log partition coefficient (logP) came out at 3.2. Next, `S=c1ssc2c1CCCCC2`: 3.27; `S=c1cc(Cc2ccccc2)ss1`: 3.43; `Cc1ccc(-c2cc(=S)ss2)cc1`: 4.26. Next, `CCCc1ssc(=S)c1C`: 3.42. The result for `CCc1ssc(=S)c1-c1ccccc1` reads 3.52; that for `CCc1ssc(=S)c1C`, 2.95. `CCCc1cc(=S)ss1` registered a lipophilicity (logP) of 2.83. Regarding `CCCc1cssc1=O`, the logP turned out to be 2.38. The result for `Cc1cc(=O)ss1` reads 1.26. Next, `CCCCc1cssc1=S`: 3.7; `S=c1ssc2ccccc12`: 3.57. Next, `CCc1cssc1=S`: 2.67.

Compound `Cc1cssc1=S` had a log partition coefficient (logP) of 2.18. For `Cc1cc(=S)ss1`, the logP came out at 1.87.

The compound `CCc1cc(=O)ss1` registered a logP of 1.69. The result for `S=c1cc(-c2ccccc2)ss1` reads 3.67; that for `CCc1ssc(=S)c1CC`, 3.51. Next, `CCCc1cc(=O)ss1`: 2.24. Next, `S=c1ssc2c1CCC2`: 2.53. In the case of `Cc1ssc(=S)c1C`, the log partition coefficient (logP) was found to be 2.45. The logP values of the last two compounds are within 0.2 log units of each other. `CCCCCc1cssc1=S` registered a logP of 4.06.

As for `CCCc1ssc(=S)c1CC`, the logP came out at 3.76. The result for `COc1ccc(-c2ssc(=S)c2C)cc1` reads 4.1; that for `CCCc1cssc1=S`, 3.18; that for `S=c1ssc2c1CCCCCC2`, 3.75. The result for `Cc1c(-c2ccccc2)ssc1=S` reads 3.95.

`Cc1ssc(=O)c1C` had a lipophilicity (logP) of 1.73. Compound `Cc1ccc(-c2cssc2=S)cc1` returned a logP of 3.73. The result for `COc1ccc(-c2cc(=S)ss2)cc1` reads 3.82; that for `S=c1ccss1`, 1.58. The result for `CCc1c(C)ssc1=S` reads 2.94.

Turning to `Cc1cssc1=O`, the lipophilicity (logP) was determined as 1.33.

The values are drawn from the SangsterLogP compilation.
